Experimental data as given in publication PMC12298351, “Novel 3,19-(N-Phenyl-3-(4-fluorophenyl)-pyrazole) Acetal of Andrographolide Promotes Cell Cycle Arrest and Apoptosis in MDA-MB-231 Breast Cancer Cells” (Pharmaceuticals, 2025).

Tests used:
[1] = system: DU-145; conditions: DU-145, Prostate
[2] = system: NCI/ADR-RES
[3] = system: MALME-3M; conditions: Melanoma
[4] = system: HL-60(TB)
[5] = system: UACC-62; conditions: UACC-62, Melanoma
[6] = system: OVCAR-8; conditions: OVCAR-8, Ovarian
[7] = system: A549/ATCC
[8] = system: SK-MEL-28; conditions: SK-MEL-28, Melanoma
[9] = system: 786-0; conditions: 786-0, Renal
[10] = system: CCRF-CEM
[11] = system: SNB-75; conditions: SNB-75, CNS
[12] = system: HOP-62
[13] = system: SF-539; conditions: SF-539, CNS
[14] = system: SR
[15] = system: HOP-92
[16] = DPPH radical scavenging assay; conditions: 25 µM test compound, 0.1 mM DPPH, acetonitrile, 30 min
Description: A stable free radical DPPH (2,2-Diphenyl-1-picrylhydrazyl) assay was employed to test the antioxidant activity of all the synthesized compounds. Concisely, 25 µM of the test compounds were dissolved in acetonitrile and combined with 0.1 mM of DPPH (in acetonitrile) in a 1:2 ratio (80 µL and 160 µL). Then, the mixture was left undisturbed in the dark for 30 min at room temperature. After 30 min, the absorbance of the solutions was instantly measured at 517 nm using a Varioskan Multiplate Reader (Thermo Fisher Scientific, Mumbai, India). Ascorbic acid (in acetonitrile) was used as the positive control, and andrographolide and isoandrogapholide (in acetonitrile) were used as the standards. The following equation was used to determine the DPPH radical scavenging activity:% Radical scavenging activity = (Ac − As)/Ac × 100 where Ac = the absorbance of the blank (DPPH solution), and As = the absorbance of the test samples

[17] = system: MCF7; conditions: MCF7, Breast
[18] = system: UO-31; conditions: UO-31, Renal
[19] = system: RXF 393; conditions: RXF 393, Renal
[20] = system: A498; conditions: A498, Renal
[21] = system: ACHN
[22] = system: NCI-H226
[23] = system: MDA-MB-435; conditions: MDA-MB-435, Melanoma
[24] = system: HS 578T
[25] = system: NCI-H460
[26] = system: HCT-116; format: cell-based; conditions: HCT-116, Colon
[27] = system: NCI-H522
[28] = read-out: 50% lethal concentration (LC50)
[29] = read-out: 50% lethal concentration (LC50), Leukemia

**Q.** Which GI50 [1] does the source give for C=C1CCC2C3(C)COC(c4cn(-c5ccccc5)nc4-c4ccc(C)cc4)OC3CCC2(C)C1CC=C1C(=O)OCC1O (stereo not shown) [1i] here?
**A.** 2050 nM

**Q.** What about the Total growth inhibition (TGI) [1] of the same molecule?
**A.** 4.19 µM

**Q.** What about the CC50 [1, 28] of the same molecule?
**A.** 8.55 µM

**Q.** What about the GI50 ([2]; Ovarian) of the same molecule?
**A.** 1650 nM

**Q.** What about the Total growth inhibition (TGI) ([2]; Ovarian) of the same molecule?
**A.** 3.71 µM

**Q.** And the CC50 ([2]; read-out: 50% lethal concentration (LC50), Ovarian)?
**A.** 8.34 µM

**Q.** What about the GI50 [3] of the same molecule?
**A.** 2460 nM

**Q.** And the Total growth inhibition (TGI) [3]?
**A.** 4.28 µM

**Q.** And the GI50 ([4]; Leukemia)?
**A.** 2170 nM

**Q.** And the Total growth inhibition (TGI) ([4]; Leukemia)?
**A.** > 100 µM

**Q.** And the CC50 [4, 29]?
**A.** > 100 µM

**Q.** And the GI50 [5]?
**A.** 1640 nM

**Q.** What about the Total growth inhibition (TGI) [5] of the same molecule?
**A.** 3.15 µM

**Q.** And the CC50 [5, 28]?
**A.** 6.04 µM

**Q.** What about the GI50 [6] of the same molecule?
**A.** 1670 nM

**Q.** What about the Total growth inhibition (TGI) [6] of the same molecule?
**A.** 3.51 µM

**Q.** And the CC50 [6, 28]?
**A.** 7.37 µM

**Q.** What about the Total growth inhibition (TGI) ([7]; Non-Small Cell Lung) of the same molecule?
**A.** 13.5 µM

**Q.** And the GI50 ([7]; Non-Small-Cell Lung)?
**A.** 3.09 µM

**Q.** What about the CC50 ([7]; read-out: 50% lethal concentration (LC50), Non-Small Cell Lung) of the same molecule?
**A.** > 100 µM

**Q.** And the GI50 [8]?
**A.** 1740 nM

**Q.** What about the Total growth inhibition (TGI) [8] of the same molecule?
**A.** 3.33 µM

**Q.** What about the CC50 [8, 28] of the same molecule?
**A.** 6.39 µM

**Q.** And the GI50 [9]?
**A.** 1770 nM

**Q.** And the Total growth inhibition (TGI) [9]?
**A.** 3.69 µM

**Q.** What about the GI50 ([10]; Leukemia) of the same molecule?
**A.** 8.4 µM

**Q.** And the Total growth inhibition (TGI) ([10]; Leukemia)?
**A.** > 100 µM

**Q.** And the CC50 [10, 29]?
**A.** > 100 µM

**Q.** And the GI50 [11]?
**A.** 1710 nM

**Q.** What about the Total growth inhibition (TGI) [11] of the same molecule?
**A.** 2.99 µM

**Q.** What about the CC50 [11, 28] of the same molecule?
**A.** 6.55 µM

**Q.** What about the Total growth inhibition (TGI) ([12]; HOP-62, Non-Small Cell Lung) of the same molecule?
**A.** 4.44 µM

**Q.** And the GI50 ([12]; HOP-62, Non-Small-Cell Lung)?
**A.** 2120 nM

**Q.** What about the CC50 ([12]; read-out: 50% lethal concentration (LC50), HOP-62, Non-Small Cell Lung) of the same molecule?
**A.** 9.27 µM

**Q.** What about the GI50 [13] of the same molecule?
**A.** 1790 nM

**Q.** And the Total growth inhibition (TGI) [13]?
**A.** 3.19 µM

**Q.** And the CC50 [13, 28]?
**A.** 5.7 µM

**Q.** What about the GI50 ([14]; Leukemia) of the same molecule?
**A.** 2740 nM

**Q.** What about the Total growth inhibition (TGI) ([14]; Leukemia) of the same molecule?
**A.** > 100 µM

**Q.** What about the CC50 [14, 29] of the same molecule?
**A.** > 100 µM

**Q.** What about the Total growth inhibition (TGI) ([15]; HOP-92, Non-Small Cell Lung) of the same molecule?
**A.** 3.14 µM

**Q.** And the GI50 ([15]; HOP-92, Non-Small-Cell Lung)?
**A.** 1430 nM

**Q.** What about the CC50 ([15]; read-out: 50% lethal concentration (LC50), HOP-92, Non-Small Cell Lung) of the same molecule?
**A.** 6.88 µM

**Q.** And the “% DPPH radical scavenging activity” value [16]?
**A.** 56.31%

**Q.** And the GI50 [17]?
**A.** 1570 nM

**Q.** And the Total growth inhibition (TGI) [17]?
**A.** 4.6 µM

**Q.** What about the CC50 [17, 28] of the same molecule?
**A.** 5.4 µM

**Q.** What about the GI50 [18] of the same molecule?
**A.** 1770 nM

**Q.** What about the Total growth inhibition (TGI) [18] of the same molecule?
**A.** 2.67 µM

**Q.** And the CC50 [18, 28]?
**A.** 5.36 µM

**Q.** What about the GI50 [19] of the same molecule?
**A.** 1490 nM

**Q.** What about the Total growth inhibition (TGI) [19] of the same molecule?
**A.** 2.97 µM

**Q.** And the CC50 [19, 28]?
**A.** 5.92 µM

**Q.** What about the GI50 [20] of the same molecule?
**A.** 4.03 µM

**Q.** And the Total growth inhibition (TGI) [20]?
**A.** 15.8 µM

**Q.** What about the CC50 [20, 28] of the same molecule?
**A.** 48.8 µM

**Q.** And the GI50 ([21]; Renal)?
**A.** 1830 nM

**Q.** And the Total growth inhibition (TGI) ([21]; Renal)?
**A.** 3.5 µM

**Q.** What about the CC50 ([21]; read-out: 50% lethal concentration (LC50), Renal) of the same molecule?
**A.** 6.67 µM

**Q.** And the Total growth inhibition (TGI) ([22]; NCI-H226, Non-Small Cell Lung)?
**A.** 2.95 µM

**Q.** And the GI50 ([22]; NCI-H226, Non-Small-Cell Lung)?
**A.** 1470 nM

**Q.** And the CC50 ([22]; read-out: 50% lethal concentration (LC50), NCI-H226, Non-Small Cell Lung)?
**A.** 5.92 µM

**Q.** And the GI50 [23]?
**A.** 1610 nM

**Q.** What about the Total growth inhibition (TGI) [23] of the same molecule?
**A.** 3.31 µM

**Q.** And the CC50 [23, 28]?
**A.** 6.79 µM

**Q.** And the GI50 ([24]; Breast)?
**A.** 1850 nM

**Q.** And the Total growth inhibition (TGI) ([24]; Breast)?
**A.** 3.41 µM

**Q.** What about the CC50 ([24]; read-out: 50% lethal concentration (LC50), Breast) of the same molecule?
**A.** 6.28 µM

**Q.** And the Total growth inhibition (TGI) ([25]; NCI-H460, Non-Small Cell Lung)?
**A.** 3.56 µM

**Q.** And the GI50 ([25]; NCI-H460, Non-Small-Cell Lung)?
**A.** 1830 nM

**Q.** What about the CC50 ([25]; read-out: 50% lethal concentration (LC50), NCI-H460, Non-Small Cell Lung) of the same molecule?
**A.** 6.91 µM

**Q.** And the GI50 [26]?
**A.** 3.91 µM

**Q.** And the Total growth inhibition (TGI) [26]?
**A.** 1.52 µM

**Q.** What about the Total growth inhibition (TGI) ([27]; NCI-H522, Non-Small Cell Lung) of the same molecule?
**A.** 3.46 µM

**Q.** And the GI50 ([27]; NCI-H522, Non-Small-Cell Lung)?
**A.** 1750 nM

**Q.** And the CC50 ([27]; read-out: 50% lethal concentration (LC50), NCI-H522, Non-Small Cell Lung)?
**A.** 6.86 µM
